Measurements published in patent US6358883B1, “Pesticidal and parasiticidal use of 1-aryl-1-(substituted thio, sulfinyl and sulfonyl)-2-nitroethane compounds” (American Cyanamid Company, priority 1998, dated 2002).

Key:
Type in all cases: in vivo
[1] = system: M. incognita (Root Knot Nematode) larvae; assay: Evaluation of test compounds against M. incognita larvae in microtiter plate wells (movement score); settings: larvae scored for movement after 20-24 hours; further: key: A score of '9' indicates inactive worms with a straight, sticklike morphology; A score of '8' indicates inactive worms with a limp, curled or curved morphology; A score of '7' indicates dead/paralyzed worms after 72 hours
Outline: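 Newly emerged M. incognita larvae in S Medium (buffered salt solution), 50-65 worms per well, exposed to test compounds in sealed microtiter wells. Movement scored after 20-24 h incubation; wells with obviously dead/paralyzed larvae scored positive. A score of "7" denotes dead/paralyzed worms after […].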

[2] = system: C. elegans (Bristol strain); assay: Evaluation of test compounds against C. elegans (motility, 96-well plate); design: key: 9=complete kill in 4 hours; 8=complete kill in 24 hours; 7=markedly reduced motility in approximately 95% of worms in 24 hours; 0=normal motility, same as controls; settings: motility at 4 and 24 hours
Outline: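 Bristol-strain C. elegans in Na buffer added to wells containing dried compound (applied in 80% acetone) and incubated at 20 °C. Motility of adults and larvae scored subjectively but semi-quantitatively under a dissecting microscope at 4 and 24 h after immersion, plates tapped before reading.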

[3] = system: Spodoptera eridania, 2nd instar larvae, southern armyworm (SAW); assay: Southern armyworm (SAW) leaf dip test; design: key: 0 = no effect; 1 = 10-25% kill; 2 = 26-35% kill; 3 = 36-45% kill; 4 = 46-55% kill; 5 = 56-65% kill; 6 = 66-75% kill; 7 = 76-85% kill; 8 = 86-99% kill; 9 = 100% kill
Outline: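 Compound is dissolved at 10,000 ppm in 35% acetone/water, then diluted with water. Lima bean leaves are dipped for 3 seconds, dried and placed with ten 2nd instar larvae on damp filter paper. Mortality, reduced feeding and molting interference are scored at 5 days.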

[4] = system: Diabrotica virgifera virgifera Leconte, 2nd instar western corn rootworm (WCR); assay: Western corn rootworm (WCR) soil test; design: key: 0 = no effect; 1 = 10-25% kill; 2 = 26-35% kill; 3 = 36-45% kill; 4 = 46-55% kill; 5 = 56-65% kill; 6 = 66-75% kill; 7 = 76-85% kill; 8 = 86-99% kill; 9 = 100% kill
Outline: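 Compound in 35% acetone/water applied to talc at 1.25 mg active ingredient per jar (about 50 kg/ha), solvent evaporated, then mixed with millet seed and moist soil. Ten 2nd-instar larvae per jar; mortality counted after 5 days, missing larvae scored dead.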

[5] = system: Tetranychus urticae (OP-resistant strain), 2-spotted spider mite (TSM); assay: 2-spotted spider mite (TSM) plant dip test; design: key: 0 = no effect; 1 = 10-25% kill; 2 = 26-35% kill; 3 = 36-45% kill; 4 = 46-55% kill; 5 = 56-65% kill; 6 = 66-75% kill; 7 = 76-85% kill; 8 = 86-99% kill; 9 = 100% kill; settings: mortality after 2 days
Outline: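 OP-resistant mites (~100 per leaf) were transferred onto Sieva lima bean primary leaves about 2 h before treatment. Infested plants were dipped for 3 s in compound from a 10,000 ppm stock in 35% acetone/water, diluted with water. Mortality was counted after 2 days.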

[6] = system: Aphis gossypii, cotton aphid (CA); assay: Cotton aphid (CA) cotyledon dip test; design: key: 0 = no effect; 1 = 10-25% kill; 2 = 26-35% kill; 3 = 36-45% kill; 4 = 46-55% kill; 5 = 56-65% kill; 6 = 66-75% kill; 7 = 76-85% kill; 8 = 86-99% kill; 9 = 100% kill; settings: mortality after 5 days
Outline: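 Cotyledon-stage cotton plants infested overnight via a heavily infested leaf, then dipped in test solution (compound in 35% acetone/water, diluted with water) and dried. Mortality counted after 5 days.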

[7] = system: Spodoptera eridania, eggs-southern armyworm (SAW-Eggs); assay: Southern armyworm eggs (SAW-Eggs) treated diet test; design: key: 0 = no effect; 1 = 10-25% kill; 2 = 26-35% kill; 3 = 36-45% kill; 4 = 46-55% kill; 5 = 56-65% kill; 6 = 66-75% kill; 7 = 76-85% kill; 8 = 86-99% kill; 9 = 100% kill; settings: mortality after 7 days
Outline: (§1)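 Compounds dissolved at 10,000 ppm in 35% acetone/water, diluted with water, applied to artificial diet in wells and dried. Southern corn rootworm or southern armyworm eggs placed on treated diet under vented covers; mortality counted after 7 days.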

[8] = system: Diabrotica undecimpunctata howardi, eggs-southern corn rootworm (SCR-Eggs); assay: Southern corn rootworm eggs (SCR-Eggs) treated diet test; design: key: 0 = no effect; 1 = 10-25% kill; 2 = 26-35% kill; 3 = 36-45% kill; 4 = 46-55% kill; 5 = 56-65% kill; 6 = 66-75% kill; 7 = 76-85% kill; 8 = 86-99% kill; 9 = 100% kill; settings: mortality after 7 days
Outline: as §1

| SMILES | M. incognita (150 ppm) score [1] | Rating Against C. elegans (150 ppm) [2] | SAW (300 ppm) rating [3] | WCR (50 ppm) rating [4] | TSM (300 ppm) rating [5] | CA (300 ppm) rating [6] | SAW Eggs (300 ppm) rating [7] | SCR Eggs (1000 ppm) rating [8] |
| --- | --- | --- | --- | --- | --- | --- | --- | --- |
| CCCSC(C[N+](=O)[O-])c1ccc(OC(F)(F)F)cc1 (racemic) [Example 122] | 0 | 8 | 2 (2 = 26-35% kill) | 9 (9 = 100% kill) | 7 (7 = 76-85% kill) | 0 | 7 (7 = 76-85% kill) | 0 |
| CCCOC(=O)CSC(C[N+](=O)[O-])c1ccc2c(c1)OCO2 (racemic) [Example 104] | 8 | 9 | 0 | 0 | 0 | 0 | 0 | 0 |
| O=[N+]([O-])CC(SCc1ccccc1)c1ccc2ccccc2c1 (racemic) [Example 116] | 0 | 0 | 0 | 0 | 0 | 0 | 0 | 0 |
| O=[N+]([O-])CC(SCc1ccccc1)c1ccc2c(c1)OCO2 (centres unmarked) [Example 23] | 8 | 7 | 8 (8 = 86-99% kill) | 4 (4 = 46-55% kill) | 0 | 4 (4 = 46-55% kill) | 9 (9 = 100% kill) | 9 (9 = 100% kill) |
| O=C(CSC(C[N+](=O)[O-])c1ccc2ccccc2c1)OCc1ccccc1 (racemic) [Example 114] | 0 | 9 | 0 | 0 | 3 (3 = 36-45% kill) | 0 | 9 (9 = 100% kill) | 0 |
| COc1cccc(C(C[N+](=O)[O-])SCC(=O)OCCCCCC(C)C)c1 (centres unmarked) [Example 58] | 0 | 0 | 0 | 0 | 0 | 0 | 0 | 0 |
| O=C(O)CSC(C[N+](=O)[O-])c1ccc(OC(F)(F)F)cc1 (centres unmarked) [Example 127] | 9 | 9 | 0 | 0 | 0 | 0 | 0 | 0 |
| CCOC(=O)CSC(C[N+](=O)[O-])c1ccc(C)cc1 (centres unmarked) [Example 5] | 9 | 9 | 0 | 4 (4 = 46-55% kill) | 0 | 0 | 0 | 0 |
| CCOC(=O)CSC(C[N+](=O)[O-])c1cccc(C#N)c1 (racemic) [Example 99] | 0 | 0 | 0 | 0 | 0 | 0 | 0 | 0 |
| CCCSC(C[N+](=O)[O-])c1cccc(OC)c1 (centres unmarked) [Example 61] | 0 | 7 | 0 | 0 | 0 | 5 (5 = 56-65% kill) | 0 | 0 |
| COC(=O)CSC(C[N+](=O)[O-])c1cccc(OC)c1 (centres unmarked) [Example 55] | 9 | 8 | 4 (4 = 46-55% kill) | 0 | 0 | 0 | 0 | 0 |
| O=C(O)CSC(C[N+](=O)[O-])c1cccc([N+](=O)[O-])c1 (centres unmarked) [Example 128] | 9 | 9 | 0 | 0 | 0 | 0 | 0 | 0 |
| O=[N+]([O-])CC(SCc1ccccc1)c1ccc(OC(F)(F)F)cc1 (centres unmarked) [Example 124] | 0 | 7 | 0 | 0 | 0 | 0 | 9 (9 = 100% kill) | 0 |
| COC(=O)CSC(C[N+](=O)[O-])c1ccc2ccccc2c1 (racemic) [Example 110] | 0 | 9 | 0 | 0 | 0 | 0 | 0 | 0 |
| CCCOC(=O)CSC(C[N+](=O)[O-])c1cccnc1 (centres unmarked) [Example 178] | 9 | 0 | 0 | 0 | 0 | 0 | 0 | 0 |
| CCCCC(CC)COC(=O)CSC(C[N+](=O)[O-])c1cccc(OC)c1 (centres unmarked) [Example 59] | 0 | 0 | 0 | 0 | 0 | 0 | 0 | 0 |
| CCOC(=O)CSC(C[N+](=O)[O-])c1ccc2c(c1)OCO2 (centres unmarked) [Example 19] | 9 | 9 | 0 | 3 (3 = 36-45% kill) | 0 | 0 | 0 | 0 |
| O=C(CSC(C[N+](=O)[O-])c1ccc(OC(F)(F)F)cc1)OCc1ccccc1 (racemic) [Example 121] | 8 | 9 | 0 | 0 | 0 | 0 | 0 | 0 |
| CCCSC(C[N+](=O)[O-])c1ccc2ccccc2c1 (racemic) [Example 115] | 0 | 0 | 0 | 0 | 0 | 0 | 8 (8 = 86-99% kill) | 0 |
